# Values joined by “and” are separate entries in the source; they are usually repeats but may differ in a detail not shown here. Equal entries are not always repeated. Where a SMILES comes first, the peptide text is derived from it. Where no end group is shown, it is not given here. [ ]: non-standard residue; d: D form. Cit = NC(=O)NCCC[C@H](N)C(=O)O
# Tests used:
# [1] = tested on: Synovial fluid mononuclear cells (SFMC) from HLA-DRB1*04:01 RA patients; test: FluoroSpot cytokine secretion by synovial fluid mononuclear cells stimulated with peptide; format: cell-based, human; conditions: for IFN-γ secretion by SFMC (in words): 20 μg/mL peptide, 48 hours, 3-color FluoroSpot, RA n = 7, 15-mer T cell peptides; for IL-10 production by SFMC (in words) / IL-17 production by SFMC (in words): peptide stimulation 48 hours, three-color fluorospot, RA n=7
# [2] = tested on: serum IgG antibodies of RA subjects; test: ELISA for serum antibodies against peptide; format: binding, human; conditions: Cys-flanked ELISA peptides
# Method: (§1) ELISAs were used to detect antibodies against citrullinated peptides in sera from patients in Autoantibody Cohorts 1 and 2 (Supplemental Table 2). Peptides used in the assay were synthesized by either GenScript or Pepceutical and are described in Supplemental Table 5. The ELISAs were conducted as previously described ([18], [26]). In brief, 96-well Nunc Maxisorp plates were coated with 10 μg/mL peptide in PBS, blocked with 2% BSA, and incubated with sera diluted 1:100. Bound antibodies were detected with an HRP-conjugated anti–human IgG Fc monoclonal antibody (6043HRP, Stratech). A standard curve of positive sera was used to calculate relative antibody titers in arbitrary units (AU) for each sample. The CCP2 ELISA for Autoantibody Cohort 1 was performed as by the manufacturer’s instruction (FCCP600, Axis-Shield). Cross-reactivity to cit-TNC56, cit-TNC17, or cit-TNC5 was analyzed in human sera reactive to cit-TNC56 or cit-TNC17. Sera were diluted 1:100, incubated with 1, 10, and 100 μg/mL of peptides for 2 hours and centrifuged at 10,000g for 10 minutes at room temperature, and the supernatant was added to peptide-coated plates for analysis by ELISA as described above. Positivity was defined by the cut-off of the 98th percentile of HC samples from Autoantibody Cohort 1.
# [3] = tested on: CD4+ memory T cells in peripheral blood; test: Ex vivo detection of peptide-specific memory CD4+ T cells by multiplex HLA class II tetramer staining; format: cell-based, human; conditions: for Frequencies of peptide-specific memory CD4+ T cells: mean ± SEM, SEM
# [4] = biological target: HLA-DRB1*04:01 (Homo sapiens, UniProt P01903+P01911, A100K/A169T/F76Y/I96L/K127E/L162R/M171V/N62H/P40V/Q125Y/R42H/S133A/S149N/S66Y/V115G/V209L/W38E); test: Peptide competition binding assay to HLA-DRB1*04:01
# [5] = tested on: CD4+ T cells in PBMC from HLA-DRB1*04:01+ subjects; test: In vitro expansion of peptide-specific CD4+ T cells from PBMC and HLA class II tetramer staining; format: cell-based, human; conditions: for Responders (% in RA): RA subjects with positive in vitro response (>0.1% of CD4+ T cells tetramer+) of total tested, 10 μg/mL peptide, 14 days, n = 14, TNC44 and TNC59 n = 6; for Immunogenicity: Supplemental Table 1, ability to elicit an immune response in vitro (tetramer staining after expansion)
# From the text: TNC is a large protein (2110 amino acids in length) composed of an N-terminal assembly domain, 14.5 epidermal growth factor–like repeats (EGF-L), 8 constant fibronectin type III–like repeats (FNIII), and an additional 9 alternatively spliced FNIII elements, and a C-terminal fibrinogen-like globe (FBG) ([16]). Using a previously described algorithm ([9], [24]), we scanned the entire length of the TNC monomer and identified 64 arg-containing peptides with motifs that would predict to permit binding to HLA-DRB1*04:01 in either their noncitrullinated native form, citrullinated form, or both. Based on these predictions, we synthesized the citrullinated versions of these peptides and tested their ability to bind HLA-DRB1*04:01 and to elicit CD4^+ T cell expansion in vitro. Of the peptides synthesized, 8 cit-TNC peptides bound to HLA-DRB1*04:01 with moderate to high affinity (Table 1). Among these, cit-TNC17, cit-TNC22, cit-TNC45, cit-TNC50, and cit-TNC56 were determined to be the most immunogenic, based on their ability to drive epitope-specific T cell expansion, as measured by HLA class II tetramer (Tmr) staining of peripheral blood mononuclear cells (PBMC) from HLA-DRB1*04:01^+ subjects following 2 weeks of in vitro expansion (Table 1 and Supplemental Figure 1; supplemental material available online with this article; https://doi.org/10.1172/jci.insight.145217DS1).
# Recombinant HLA-DRB1*04:01 protein was produced by the BRI Tetramer Core as previously described ([56]). Soluble HLA-DRB1*04:01 monomer was purified from insect cell culture supernatants and biotinylated at a sequence-specific site using biotin ligase (Avidity) prior to dialysis into phosphate storage buffer. The biotinylated monomer was loaded with 0.2 mg/mL of peptide by incubating at 37°C for 72 hours in the presence of 2.5 mg/mL n-octyl β-D-glucopyranoside and 1 mM Pefabloc SC (Sigma-Aldrich). Peptide-loaded monomers were conjugated into Tmrs using fluorescently labeled streptavidin (Invitrogen) for 6–18 hours at room temperature at a molar ratio of 8:1.
# Cryopreserved PBMCs from RA and healthy subjects were cultured at 5 × 10^6 cells/well in a 48-well plate in RPMI-1640 + 10% HPS with 10 μg/mL of peptide. IL-2 (Novartis) was added at 325 IU/mL on day 6. On day 14, cells were stained for expression of Tmr-PE, CD25 APC (BD Biosciences), and CD4 FITC (BioLegend) (Supplemental Table 8) and then run on a FACSCanto. The data were analyzed by FlowJo software version 10.
# [6] = tested on: anti-cit-TNC antibodies in double-reactive RA sera; test: Cross-reactivity (peptide absorption/inhibition) ELISA; format: binding, human; conditions: for Absorption by the homologous peptide (in words): sera double-reactive for cit-TNC17 and cit-TNC56
# Method: Sera that were double-reactive with peptides cit-TNC17 or cit-TNC56 and cit-TNC56, cit-TNC17, or cit-TNC5 were diluted 1:100, incubated with 1, 10, and 100 μg/mL of peptides for 2 hours and centrifuged at 10,000g for 10 minutes, and the supernatant then added to peptide-coated plates for analysis by ELISA. […] (B) Limited cross-reactivity between anti–cit-TNC56 and both anti–cit-TNC17 and anti–cit-TNC5. Each panel was run on a separate plate.
# as §1
# [7] = Autoantibody Cohort 1: HLA-DRB1*04:01, CCP+ RA sera (n = 17), diluted 1:100, cut-off 98th percentile of HC
# [8] = Autoantibody Cohort 2, CCP+ RA (n = 55)
# [9] = Autoantibody Cohort 2, CCP– RA (n = 43)
Compound,IFN-γ secretion by SFMC (in words) [1],"Percentage of subjects seropositive for antibodies to peptide [2, 7]",Percentages of subjects with a detectable ex vivo response ([3]; Healthy control subjects (n=7)),Frequencies of peptide-specific memory CD4+ T cells ([3]; Healthy control subjects (n=7)),Percentages of subjects with a detectable ex vivo response ([3]; RA subjects (n=9)),Frequencies of peptide-specific memory CD4+ T cells ([3]; RA subjects (n=9)),EC50 [4],Responders (% in RA) [5],Immunogenicity [5],other results
"CTPLAKFD[Cit]Y[Cit]LNYSLPTGC [cit-TNC22, Cys-flanked citrullinated TNC22 peptide used in ELISA]",elicited IFN-γ secretion by SFMC,35%,,,,,,,,IL-10 production by SFMC (in words) [1]: produced
CC(C)C[C@H](NC(=O)[C@H](CCCNC(N)=O)NC(=O)[C@H](Cc1ccc(O)cc1)NC(=O)[C@H](CCCNC(N)=O)NC(=O)[C@H](CC(=O)O)NC(=O)[C@@H](N)Cc1ccccc1)C(=O)N[C@@H](CC(N)=O)C(=O)N[C@@H](Cc1ccc(O)cc1)C(=O)N[C@@H](CO)C(=O)N[C@@H](CC(C)C)C(=O)N1CCC[C@H]1C(=O)N[C@H](C(=O)NCC(=O)N[C@@H](CCC(N)=O)C(=O)N[C@@H](Cc1c[nH]c2ccccc12)C(=O)O)[C@@H](C)O [TNC22] (H-FD[Cit]Y[Cit]LNYSLPTGQW-OH),,,71%,3.0±1.2 /million memory CD4+ T cells,56%,3.8±1.9 /million memory CD4+ T cells,0.7 µM,46%,Yes,
"CEHSIQFAEMKL[Cit]PSNF[Cit]NLEG[Cit][Cit]KRC (cysteine pairing not given here) [cit-TNC5, previously published cit-TNC5 peptide, positive control in antibody ELISA, reference compound]",,47%,,,,,,,,
CC(C)C[C@H](NC(=O)[C@H](CCCNC(N)=O)NC(=O)[C@H](Cc1ccccc1)NC(=O)CNC(=O)[C@H](CC(=O)O)NC(=O)[C@@H]1CCCN1)C(=O)N[C@@H](CO)C(=O)N[C@@H](Cc1c[nH]c2ccccc12)C(=O)N[C@H](C(=O)N[C@@H](C)C(=O)N[C@@H](CC(=O)O)C(=O)N[C@@H](CCC(=O)O)C(=O)NCC(=O)N[C@H](C(=O)N[C@@H](Cc1ccccc1)C(=O)O)C(C)C)[C@@H](C)O [TNC45] (H-PDGF[Cit]LSWTADEGVF-OH),,,71%,2.6±1.0 /million memory CD4+ T cells,100%,22.6±6.4 /million memory CD4+ T cells,17.1 µM,50%,Yes,
"CEYEVSLIS[Cit][Cit]GDMSSNPAC [cit-TNC17, Cys-flanked citrullinated TNC17 peptide used for detection of antibodies by ELISA]",elicited IFN-γ secretion by SFMC,100%,,,,,,,,"IL-10 production by SFMC (in words) [1]: produced; Cross-reactivity with cit-TNC5 (in words) ([6]; double-reactive sera): no cross-reactivity; Absorption by the homologous peptide (in words) [6]: efficient; maximum inhibition ([6]; serum 6, cit-TNC17 versus cit-TNC56, sera 1:100, 1, 10 and 100 μg/mL peptide, 2 hours): 22%; Percentage of subjects seropositive for antibodies to peptide [2, 8]: 63.6% and 64%; Percentage of subjects seropositive for antibodies to peptide [2, 9]: 2.3%"
CC[C@H](C)[C@H](NC(=O)[C@H](CCCNC(N)=O)NC(=O)[C@H](Cc1ccccc1)NC(=O)[C@H](CO)NC(=O)[C@H](CCC(=O)O)NC(=O)[C@@H](N)C(C)C)C(=O)N[C@H](C(=O)N[C@@H](Cc1ccc(O)cc1)C(=O)N[C@H](C(=O)N1CCC[C@H]1C(=O)N[C@H](C(=O)N[C@H](C(=O)NCC(=O)NCC(=O)N[C@H](C(=O)O)[C@@H](C)O)[C@@H](C)O)[C@@H](C)CC)C(C)C)[C@@H](C)O [TNC50] (H-VESF[Cit]ITYVPITGGT-OH),,,71%,1.5±0.6 /million memory CD4+ T cells,100%,9.6±3.1 /million memory CD4+ T cells,1 µM,50%,Yes,
"CPTAQVESF[Cit]ITYVPITGGC [cit-TNC50, Cys-flanked citrullinated TNC50 peptide used in ELISA]",,,,,,,,,,IL-17 production by SFMC (in words) [1]: produced
"CQGQYEL[Cit]VDL[Cit]DHGETAFC [cit-TNC56, Cys-flanked citrullinated TNC56 peptide used in ELISA]",elicited IFN-γ secretion by SFMC,53%,,,,,,,,"IL-17 production by SFMC (in words) [1]: produced; Absorption by the homologous peptide (in words) [6]: efficient; maximum inhibition ([6]; serum 2, cit-TNC56 versus cit-TNC17, sera 1:100, 1, 10 and 100 μg/mL peptide, 2 hours): 24.8%; maximum inhibition ([6]; serum 2, cross-reactivity between cit-TNC56 and cit-TNC5): 38.7%; maximum inhibition ([6]; serum 6, citTNC56 versus cit-TNC17, sera 1:100, 1, 10 and 100 μg/mL peptide, 2 hours): 43%; Percentage of subjects seropositive for antibodies to peptide [2, 8]: 45.5%; Percentage of subjects seropositive for antibodies to peptide [2, 9]: 11.6%"
"CVSDATPDGF[Cit]LSWTADEGC [cit-TNC45, Cys-flanked citrullinated TNC45 peptide used in ELISA]",elicited IFN-γ secretion by SFMC,29%,,,,,,,,
